Experimental findings from PMC9580147, “A novel C-type lectin from Trichinella spiralis mediates larval invasion of host intestinal epithelial cells” (Veterinary Research, 2022) are described below.

The assay addresses T1, rTsCTL (TsCTL, Trichinella spiralis type C lectin) (Trichinella spiralis, UniProt A0A0V1BZI5).
T1 construct: gene T01_9679; N-terminal His-tag (pQE-80L), E. coli BL21 (DE3), Ni-NTA purified; 208 aa full length, 24 kDa; C-type lectin domain residues 24-156
Kind of assay: inhibition of haemagglutination of mouse erythrocytes by rTsCTL. The assay is classed as biochemical. Conditions: rTsCTL 100 ug/mL; 2% mouse erythrocytes; room temperature, 1 h; Ca2+-dependent lectin; TBS pH 8.0; presumed carbohydrate recognition domain.

T1 sequence (A0A0V1BZI5 entry or part of it): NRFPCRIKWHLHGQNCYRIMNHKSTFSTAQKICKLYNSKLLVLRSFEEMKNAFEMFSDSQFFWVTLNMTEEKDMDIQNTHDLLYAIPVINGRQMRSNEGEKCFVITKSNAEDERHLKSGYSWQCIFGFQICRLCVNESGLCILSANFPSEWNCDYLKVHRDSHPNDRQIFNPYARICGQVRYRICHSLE

Molecule `OC[C@H]1OC(O)[C@@H](O)[C@@H](O)[C@@H]1O` (stereo partly shown) [mannose] displayed a minimum inhibitory dose of 100 mM.
